Source: ChEMBL document CHEMBL1157003, “'Novel alkyl side chain sulfone 1alpha,25-dihydroxyvitamin D3 analogs: a comparison of in vitro antiproliferative activities and in vivo calcemic activities'” (2009)
Active and inactive are the calls of the source. The calls are words filed in the database; no cut-off is given here.

What was measured:
[1] = tested on: Keratinocyte; test: Antiproliferative activity against mouse keratinocytes; type: functional, cell-based
[2] = tested on: Rattus norvegicus; test: Inhibition of calciuria in rat at 10 ug/kg, po administered qd for 1 week; type: functional, organism-based
[3] = Antiproliferative activity against mouse keratinocytes at 10 nM relative to calcitrol; type: functional, Keratinocyte

Row | SMILES | Activity [1] | inhibition [2] | Ratio [3]
1 | C=C1/C(=C\C=C2/CCC[C@]3(C)C([C@H](C)CCCS(C)(=O)=O)=CC[C@@H]23)C[C@@H](O)C[C@@H]1O | Active | Active | –
2 | C=C1/C(=C\C=C2/CCC[C@]3(C)C([C@H](C)CCCS(=O)(=O)C(F)(F)F)=CC[C@@H]23)C[C@@H](O)C[C@@H]1O | – | Active | 2
3 | C=C1/C(=C\C=C2/CCC[C@]3(C)C([C@H](C)CCCS(=O)(=O)C(C)C)=CC[C@@H]23)C[C@@H](O)C[C@@H]1O | Active | Active | –
4 | C=C1/C(=C\C=C2/CCC[C@]3(C)[C@@H]([C@H](C)CCCC(C)(C)O)CC[C@@H]23)C[C@@H](O)C[C@@H]1O | – | Active | –
